Columns and labels:
IP3R = conditions: cited from earlier work
[1] = target: IP3R1 with R504 mutated to glutamine (Rattus norvegicus, UniProt P29994, R504Q); test: Ca2+ release in cell line expressing only IP3R1 with R504 mutated to glutamine; type: cell-based
Chain of IP3R1 with R504 mutated to glutamine (P29994 whole entry R504Q): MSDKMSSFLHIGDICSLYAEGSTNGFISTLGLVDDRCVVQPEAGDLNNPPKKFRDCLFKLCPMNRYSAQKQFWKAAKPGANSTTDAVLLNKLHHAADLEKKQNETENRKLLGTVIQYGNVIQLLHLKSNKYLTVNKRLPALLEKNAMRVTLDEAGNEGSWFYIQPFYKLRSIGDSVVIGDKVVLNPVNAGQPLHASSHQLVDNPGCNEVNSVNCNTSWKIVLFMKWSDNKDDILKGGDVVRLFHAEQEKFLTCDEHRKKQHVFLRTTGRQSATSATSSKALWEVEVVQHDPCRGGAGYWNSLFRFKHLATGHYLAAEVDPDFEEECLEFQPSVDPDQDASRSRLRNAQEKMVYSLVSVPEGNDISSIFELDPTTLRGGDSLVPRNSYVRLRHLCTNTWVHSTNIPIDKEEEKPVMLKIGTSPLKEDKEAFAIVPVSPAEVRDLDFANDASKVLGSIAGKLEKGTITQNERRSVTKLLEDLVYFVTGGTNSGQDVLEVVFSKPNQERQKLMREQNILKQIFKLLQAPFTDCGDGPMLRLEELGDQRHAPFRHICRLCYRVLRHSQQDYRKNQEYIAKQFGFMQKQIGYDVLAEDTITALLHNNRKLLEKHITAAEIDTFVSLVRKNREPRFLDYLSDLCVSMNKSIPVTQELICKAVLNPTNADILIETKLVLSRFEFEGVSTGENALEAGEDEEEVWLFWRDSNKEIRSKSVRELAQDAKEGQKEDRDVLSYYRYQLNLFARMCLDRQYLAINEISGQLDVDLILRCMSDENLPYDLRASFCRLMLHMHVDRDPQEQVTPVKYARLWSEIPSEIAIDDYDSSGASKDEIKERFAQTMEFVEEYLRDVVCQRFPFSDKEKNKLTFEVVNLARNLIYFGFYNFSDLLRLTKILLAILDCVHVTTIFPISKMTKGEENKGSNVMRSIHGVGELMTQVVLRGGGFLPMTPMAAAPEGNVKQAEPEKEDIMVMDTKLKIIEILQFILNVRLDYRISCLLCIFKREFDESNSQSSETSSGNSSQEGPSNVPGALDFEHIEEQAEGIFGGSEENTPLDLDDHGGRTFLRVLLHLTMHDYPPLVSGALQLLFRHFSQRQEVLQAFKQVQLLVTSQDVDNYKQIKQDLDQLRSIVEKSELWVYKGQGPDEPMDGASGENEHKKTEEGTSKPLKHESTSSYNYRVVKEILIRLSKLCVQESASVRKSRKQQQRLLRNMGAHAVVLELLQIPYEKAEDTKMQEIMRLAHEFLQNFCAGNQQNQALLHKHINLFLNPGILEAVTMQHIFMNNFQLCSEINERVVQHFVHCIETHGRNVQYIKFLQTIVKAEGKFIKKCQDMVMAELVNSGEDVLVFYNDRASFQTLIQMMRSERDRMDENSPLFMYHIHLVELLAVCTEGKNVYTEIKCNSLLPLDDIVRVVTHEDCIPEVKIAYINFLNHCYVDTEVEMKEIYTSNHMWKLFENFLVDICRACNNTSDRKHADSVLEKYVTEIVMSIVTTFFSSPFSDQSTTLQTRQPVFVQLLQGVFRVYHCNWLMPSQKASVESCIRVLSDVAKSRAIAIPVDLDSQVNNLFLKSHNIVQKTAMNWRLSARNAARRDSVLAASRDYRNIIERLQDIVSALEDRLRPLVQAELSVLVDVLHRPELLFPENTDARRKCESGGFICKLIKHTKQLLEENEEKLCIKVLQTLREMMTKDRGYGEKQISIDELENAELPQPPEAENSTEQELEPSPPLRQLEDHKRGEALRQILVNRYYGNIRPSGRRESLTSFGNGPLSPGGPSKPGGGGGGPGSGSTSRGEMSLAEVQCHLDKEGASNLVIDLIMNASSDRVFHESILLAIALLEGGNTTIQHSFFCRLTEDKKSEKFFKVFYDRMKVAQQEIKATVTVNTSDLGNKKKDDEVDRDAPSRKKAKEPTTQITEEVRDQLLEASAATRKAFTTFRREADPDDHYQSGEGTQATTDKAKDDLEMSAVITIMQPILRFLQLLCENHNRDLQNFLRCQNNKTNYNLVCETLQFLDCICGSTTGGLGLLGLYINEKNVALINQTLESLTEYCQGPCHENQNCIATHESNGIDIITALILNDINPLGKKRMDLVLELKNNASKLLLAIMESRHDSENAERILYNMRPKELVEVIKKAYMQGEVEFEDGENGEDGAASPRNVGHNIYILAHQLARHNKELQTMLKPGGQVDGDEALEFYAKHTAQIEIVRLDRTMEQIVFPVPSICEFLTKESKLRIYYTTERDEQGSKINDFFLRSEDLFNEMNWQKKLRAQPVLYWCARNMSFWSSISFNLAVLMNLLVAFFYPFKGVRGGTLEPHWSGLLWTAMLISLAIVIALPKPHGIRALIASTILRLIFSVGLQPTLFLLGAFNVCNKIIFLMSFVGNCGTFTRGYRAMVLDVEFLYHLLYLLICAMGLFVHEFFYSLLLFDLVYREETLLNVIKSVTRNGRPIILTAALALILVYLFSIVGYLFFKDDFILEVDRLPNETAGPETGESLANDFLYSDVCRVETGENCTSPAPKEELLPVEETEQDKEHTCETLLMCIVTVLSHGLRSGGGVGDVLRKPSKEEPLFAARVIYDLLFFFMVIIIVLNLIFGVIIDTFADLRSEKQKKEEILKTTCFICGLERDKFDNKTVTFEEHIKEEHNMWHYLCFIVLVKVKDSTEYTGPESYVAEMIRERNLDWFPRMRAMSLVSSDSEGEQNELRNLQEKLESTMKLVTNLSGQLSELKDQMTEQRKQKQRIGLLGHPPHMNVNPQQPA

Row | Compound | activity at IP3R (result in words) (IP3R) | potency relative to IP3 at the mutated receptor [1] | change of EC50 at mutant IP3R relative to IP3R1 ([1]; printed as EC50 reduced) [fold] | potency relative to IP3 (IP3R)
1 | O=P(O)(O)O[C@@H]1[C@@H](O)[C@H](OP(=O)(O)O)[C@H](O)[C@H](O)[C@H]1O [Ins(1,5)P2] | inactive |  |  | 
2 | Nc1ncnc2c1ncn2[C@@H]1O[C@H](CO)[C@@H](O[C@H]2O[C@H](CO)[C@@H](OP(=O)(O)O)[C@H](OP(=O)(O)O)[C@H]2O)[C@H]1OP(=O)(O)O [AdA, adenophostin A] |  | only equipotent with IP3 | 434 | at least ten times more potent than IP3
